For assay [1], the system named is SETVI. The assay is described as follows: Herbicidal post-emergence action 1a (greenhouse pots, visual rating). The class given is in vivo, Setaria viridis. To be noted: rated visually about 3 weeks after treatment, 100% = plants have died, 0% = like control plants. On the procedure: (§1) [table] a) Seeds of monocotyledonous and dicotyledonous weeds and crop plants are placed in sandy loam in plastic or organic plant pots, covered with soil and cultivated in a greenhouse under controlled growth conditions. 2 to 3 weeks after sowing, the test plants are treated at the one-leaf stage. The compounds of the invention, formulated in the form of wettable powders (WP) or as emulsion concentrates (EC), are then sprayed onto the green parts of the plants as aqueous suspension or emulsion with addition of 0.5% additive at a water application rate of 600 1/ha (converted). After the test plants have been kept in the greenhouse under optimum growth conditions for about 3 weeks, the activity of the preparations is rated visually in comparison to untreated controls. For example, 100% activity=the plants have died, 0% activity=like control plants. Tables A1 to A15 below show the effects of selected compounds of the general formula (I) according to Tables 1 and 2 on various harmful plants and an application rate corresponding to 320 g/ha and/or 80 g/ha, which were obtained by the experimental procedure mentioned above.

Assay [2] concerns VERPE. The assay is described as above. It counts as in vivo, Veronica persica. To be noted: visual rating about 3 weeks after treatment. As to the method:
as §1

Assay [3] concerns SETVI. Nature of the assay: Herbicidal pre-emergence action 2a (greenhouse pots, visual scoring). It counts as in vivo, Setaria viridis. To be noted: dosage 320 g/ha, visual scoring after about 3 weeks vs untreated controls. From the text:
(§2) [table] a) Seeds of monocotyledonous and dicotyledonous weed plants and crop plants are placed in plastic or organic plant pots and covered with soil. The compounds of the invention, formulated in the form of wettable powders (WP) or as emulsion concentrates (EC), are then applied onto the surface of the covering soil as aqueous suspension or emulsion with addition of 0.5% additive at a water application rate of 600 1/ha (converted). After the treatment, the pots are placed in a greenhouse and kept under good growth conditions for the trial plants. After about 3 weeks, the effect of the preparations is scored visually in comparison with untreated controls as percentages. For example, 100% activity=the plants have died, 0% activity=like control plants. Tables B1 to B15 below show the effects of selected compounds of the general formula (I) according to Tables 1 and 2 on various harmful plants and an application rate corresponding to 320 g/ha and/or 80 g/ha, which were obtained by the experimental procedure mentioned above.

Assay [4] relates to AMARE. The assay is described as above. The class given is in vivo, Amaranthus retroflexus. The following applies: dosage 320 g/ha, visual scoring after about 3 weeks vs untreated controls.
From the text: as §2

For assay [5], the system named is AMARE. The assay is described as follows: Herbicidal post-emergence action 1a (greenhouse pots, visual rating). The class given is in vivo, Amaranthus retroflexus. To be noted: dosage 80 g/ha, visual rating about 3 weeks after treatment. As to the method: as §1
In assay [6] the test system is ABUTH. Described as above. The following applies: dosage 80 g/ha, visual rating about 3 weeks after treatment. It counts as in vivo, Abutilon theophrasti. On the procedure:
as §1

Assay [7] relates to POLCO. The description is as above. The class given is in vivo, Polygonum convolvulus. The following applies: dosage 80 g/ha, visual rating about 3 weeks after treatment. On the procedure: as §1
The test system of assay [8] is VERPE. The assay is described as follows: Herbicidal pre-emergence action 2a (greenhouse pots, visual scoring). To be noted: dosage 320 g/ha, visual scoring after about 3 weeks vs untreated controls. The class given is in vivo, Veronica persica.
From the text: as §2

Assay [9] concerns VIOTR. Nature of the assay: Herbicidal post-emergence action 1a (greenhouse pots, visual rating). It counts as in vivo, Viola tricolor. To be noted: dosage 320 g/ha, visual rating about 3 weeks after treatment. On the procedure:
as §1

Assay [10] concerns LOLRI. The assay is described as follows: Herbicidal pre-emergence action 2a (greenhouse pots, visual scoring). The following applies: dosage 320 g/ha, visual scoring after about 3 weeks vs untreated controls. It counts as in vivo, Lolium rigidum.
From the text: as §2

In assay [11] the test system is POAAN. The assay is described as follows: Herbicidal post-emergence action 1b (twin sowing, 1280 g/ha). It counts as in vivo, Poa annua. To be noted: dosage 1280 g/ha, visual rating about 3 weeks after treatment. On the procedure:
[table] b) Seeds of mono- and dicotyledonous weed plants are placed in plastic pots in sandy loam soil (twin sowing with one species each of mono- or dicotyledonous weed plants per pot), covered with soil and cultivated in a greenhouse under controlled growth conditions. 2 to 3 weeks after sowing, the test plants are treated at the one-leaf stage. The compounds of the invention, formulated in the form of wettable powders (WP) or as emulsion concentrates (EC), are applied to the green parts of the plants as aqueous suspension or emulsion with addition of 0.5% additive at a water application rate equivalent to 600 litres per hectare. After the test plants have been kept in the greenhouse under optimum growth conditions for about 3 weeks, the activity of the preparations is rated visually in comparison to untreated controls. For example, 100% activity=the plants have died, 0% activity=like control plants. Tables A16 to A21 below show the effects of selected compounds of the general formula (I) according to Tables 1 and 2 on various harmful plants and at an application rate corresponding to 1280 g/ha, which were obtained by the experimental procedure mentioned above.

Assay [12] has as its system POAAN. The assay is described as follows: Herbicidal pre-emergence action 2b (doubly sown, 1280 g/ha). The class given is in vivo, Poa annua. To be noted: doubly sown pots, dosage 1280 g/ha, visual scoring after about 3 weeks. From the text: (§3) [table] b) Seeds of mono- and dicotyledonous weed plants are placed in plastic pots in sandy loam soil (doubly sown with one species each of mono- or dicotyledonous weed plants per pot) and covered with soil. The compounds of the invention, formulated in the form of wettable powders (WP) or as emulsion concentrates (EC), are then applied onto the surface of the covering soil as aqueous suspension or emulsion with addition of 0.5% additive at a water application rate equivalent to 600 litres per hectare. After the treatment, the pots are placed in a greenhouse and kept under good growth conditions for the trial plants. After about 3 weeks, the effect of the preparations is scored visually in comparison with untreated controls as percentages. For example, 100% activity=the plants have died, 0% activity=like control plants. Tables B16 to B21 below show the effects of selected compounds of the general formula (I) according to Tables 1 and 2 on various harmful plants and at an application rate corresponding to 1280 g/ha, which were obtained by the experimental procedure mentioned above.

Assay [13] has as its system AMARE. The assay is described as above. To be noted: doubly sown pots, dosage 1280 g/ha, visual scoring after about 3 weeks. The class given is in vivo, Amaranthus retroflexus.
From the text: as §3

Assay [14] deals with STEME. Described as above. The class given is in vivo, Stellaria media. The following applies: doubly sown pots, dosage 1280 g/ha, visual scoring after about 3 weeks.
From the text: as §3

Assay [15] concerns ALOMY. The assay is described as follows: Herbicidal post-emergence action 1a (greenhouse pots, visual rating). The class given is in vivo, Alopecurus myosuroides. The following applies: Dosage 80 g/ha; rated visually about 3 weeks after treatment; 100% = plants have died, 0% = like control plants. On the procedure:
as §1

The test system of assay [16] is AVEFA. Described as above. The following applies: Dosage 80 g/ha; rated visually about 3 weeks after treatment; 100% = plants have died, 0% = like control plants. The class given is in vivo, Avena fatua. As to the method:
as §1

Assay [17] concerns ALOMY. The assay is described as follows: Herbicidal pre-emergence action 2a (greenhouse pots, visual scoring). It counts as in vivo, Alopecurus myosuroides. The following applies: dosage 320 g/ha, visual scoring after about 3 weeks.
From the text: as §2

The test system of assay [18] is POLCO. The description is as above. To be noted: dosage 320 g/ha, visual scoring after about 3 weeks vs untreated controls. It counts as in vivo, Polygonum convolvulus.
From the text: as §2

With `COC(=O)C(C)Oc1nn(-c2nccnc2F)c(-c2ccc(F)nc2)c1Br` (racemic) [Example I-78], the figures for the “Post-emergence action against SETVI in %” value in [1] (Dosage 80 g/ha) and in assay [1] (Dosage 320 g/ha) were 80% and 100%, respectively. Further, the “Post-emergence action against VERPE in %” value in assay [2] (dosage 320 g/ha) was 80%. In [3], the “Pre-emergence action against SETVI in %” value worked out at 90%. In addition, in assay [4], the “Pre-emergence action against AMARE in %” value came to 80%.

With `CC(C)N(C)S(=O)(=O)NC(=O)COc1nn(-c2cnccn2)c(-c2ccc(F)nc2)c1Br` [II-13], the “Post-emergence action against AMARE in %” value in [5] is recorded as 80%. For the same compound, the “Pre-emergence action against AMARE in %” value in [4] is recorded as 90%.

Consider `CCOC(=O)CCNC(=O)COc1nn(-c2cnccn2)c(-c2ccc(F)nc2)c1Br` [II-09], for which the “Post-emergence action against ABUTH in %” value in [6] amounted to 90%. The “Post-emergence action against AMARE in %” value in [5] is on record as 90%. Moreover, in assay [7], the “Post-emergence action against POLCO in %” value amounted to 80%. In addition, the “Post-emergence action against VERPE in %” value in assay [2] (dosage 80 g/ha) is reported as 90%.

For `COC(=O)[C@@H](C)Oc1nn(-c2cnccn2)c(-c2ccnnc2)c1C#N` [Example I-32], the “Pre-emergence action against VERPE in %” value in assay [8] is 90%.

Turning to `COC(=O)[C@@H](C)Oc1nn(-c2cnccn2)c(-c2cccc(F)c2)c1Br` [Example 1-20], the “Post-emergence action against VIOTR in %” value in [9] came out at 90%. In addition, the “Pre-emergence action against LOLRI in %” value in assay [10] turned out to be 100%.

Regarding `COC(=O)C(C)Oc1nn(-c2cnccn2)c(-c2ccccc2)c1Br` (racemic) [Example I-19], the “Post-emergence action at 1280 g/ha against POAAN in %” value in assay [11] was 100%. The “Pre-emergence action at 1280 g/ha against POAAN in %” value in assay [12] was 100%. In addition, the “Pre-emergence action at 1280 g/ha against AMARE in %” value in assay [13] is listed as 100%. Further, the “Pre-emergence action at 1280 g/ha against STEME in %” value in assay [14] came to 100%.

With `CC(Oc1nn(-c2cnccn2)c(-c2ccc(F)nc2)c1C1CC1)C(=O)O` (stereo not drawn) [Example I-86], in [15], the “Post-emergence action against ALOMY in %” value was 90%. Besides, the “Post-emergence action against AVEFA in %” value in assay [16] was found to be 90%. In assay [17], the “Pre-emergence action against ALOMY in %” value came out at 100%. The “Pre-emergence action against LOLRI in %” value in assay [10] is given as 100%. Besides, the “Pre-emergence action against AMARE in %” value in assay [4] worked out at 80%. For the same compound, the “Pre-emergence action against POLCO in %” value in [18] came out at 80%.

`CN(C)S(=O)(=O)NC(=O)COc1nn(-c2cnccn2)c(-c2ccc(F)nc2)c1Br` [II-12]: in [3], the “Pre-emergence action against SETVI in %” value is 100%. Also, the “Pre-emergence action against AMARE in %” value in [4] amounted to 80%.

As to `CS(=O)(=O)NC(=O)COc1nn(-c2cnccn2)c(-c2ccc(F)nc2)c1Br` [II-14], the “Pre-emergence action against AMARE in %” value in [4] is on record as 80%.

(Values after patent publication US20230167088A1, “1-PYRAZINYLPYRAZOLYL-3-OXYALKYL ACIDS AND THEIR DERIVATIVES, AND THEIR USE FOR CONTROL OF UNDESIRED PLANT GROWTH” (BAYER AKTIENGESELLSCHAFT, priority 2020, published 2023).)
